Here are results for one compound from ChEMBL document CHEMBL1132357, “Synthesis and properties of 3-(2-hydroxyethyl)-3-n-pentyldiazirine, a photoactivable general anesthetic” (J Med Chem, 1999).

A short description of this assay: The compound was tested for anesthetic potency in tadpoles. It is filed as functional, frog.

The term EC50 denotes the concentration that produces a half-maximal response. In turn, `CCCCCC1(CCO)N=N1` had a concentration giving a half-maximal response (EC50) of 160 µM.
